# US20070219245A1, “METHOD OF USE FOR SUBSTITUTED DIPIPERIDINE CCR2 ANTAGONISTS” (priority 2006, published 2007)
# Columns and labels:
# Format in all cases: in vivo
# [1] = tested on: DIO mice; test: Diet induced obesity (DIO) model, treatment arm TA1 (high fat diet); details: for Body Weight Gain / Change in Fat Mass / Change in Lean Mass / Change in Water / Food Intake / Plasma MCP-1: TA1 DIO mice, high fat diet, mean ± SEM
# Protocol: (§1) In a diet induced obesity (DIO) model in mice, two treatment arms of mice were tested. In the first treatment arm (TA1), DIO mice in four treatment groups (treated: 25 mg/kg, 50 mg/kg and 100 mg/kg and non-treated vehicle control) were fed a high fat diet. In the second treatment arm (TA2), lean mice in two treatment groups (treated: 100 mg/kg and non-treated vehicle control) were fed a regular chow diet. After 7 days acclimation to the diet, the treated groups in each arm were dosed (0.1 mL, ip, bid) with a test compound from Day 1 to Day 28 of the study. After 7 days acclimation to the diet, the non-treated groups in each arm were dosed (0.1 mL, ip, bid) with vehicle from Day 1 to Day 28 of the study. Body weight was monitored twice per week and on Day 28. After sacrifice, blood glucose, body weight, body mass, serum MCP-1 and insulin levels were also recorded. MCP-1 was measured by ELISA. The statistical analysis for p value was performed using the program Prism (Graphpad, Monrovia, Calif.) with the Student t-test (unpaired). All data are presented as the mean ± standard error of the mean (SEM).
# [2] = tested on: lean mice; test: Diet induced obesity model, treatment arm TA2 (lean mice, regular chow diet); details: 100 mg/kg ip bid Day 1-28, mean ± SEM
# Protocol: as §1
# [3] = tested on: NON (NONcNZO10/LtJ) mice; test: Insulin sensitivity model: insulin tolerance test; details: for Blood Glucose: mean ± SEM
# Protocol: (§2) In an insulin sensitivity model in mice, four month old male NON (NONcNZO10/LtJ) mice in four treatment groups (treated: 25 mg/kg, 50 mg/kg and 100 mg/kg and non-treated vehicle control) were fed LabDiet® 5K20 for 28 days. The treated groups were dosed (0.1 mL, ip, bid) with a test compound from Day 1 to Day 28. The non-treated group was dosed (0.1 mL, ip, q.d.) with vehicle from Day 1 to Day 28. Body weight and blood glucose were monitored once per week and an insulin tolerance test was performed by i.p. injection of […] insulin, then fed blood glucose levels were measured at 0, 15, 30, 60, 90, and 120 min after insulin administration. The insulin tolerance test blood glucose levels at the time points the sample were taken after insulin administration are shown in Table 5. Blood glucose levels were measured using a Glucometer. MCP-1 and insulin were measured by ELISA. Plasma glucose and FFA were measured using Weko kits. The statistical analysis for p value was performed using the program Prism (Graphpad, Monrovia, Calif.) with the Student t-test (unpaired). All data are presented as the mean ± standard error of the mean (SEM).
# [4] = tested on: NON (NONcNZO10/LtJ) mice; test: Insulin sensitivity model: Day 28 blood samples and body weight; details: for Blood HbA1c / Body Weight / Plasma FFA / Plasma Glucose / Plasma Insulin / Plasma MCP-1: mean ± SEM
# Protocol: as §2, with “5. After sacrifice on Day 28, blood samples were collected to measure HbA1c, plasma levels of glucose, plasma insulin, FFA (free fatty acids) and MCP-1.” for “5.”
smiles,measurement,setting,value
"O=C(O)[C@H](C1CCN(C(=O)/C=C/c2cc(F)c(F)c(F)c2)CC1)N1CCC(c2c[nH]c3ccccc23)CC1 [(S)-{[4-(1H-indol-3-yl)-piperidin-1-yl]}-{1-[(2E)-3-(3,4,5-trifluoro-phenyl)-acryloyl]-piperidin-4-yl}-acetic acid]",body fat mass gain,[1]; DIO model in mice,significantly reduced
same,lean mass,[1]; DIO model in mice,no change
same,weight gain,[1]; DIO model in mice,significantly reduced
same,Body Weight Gain,[1]; 25 mg/kg ip bid Day 1-28,3.8 ± 1.2 g
same,Change in Fat Mass,[1]; 25 mg/kg ip bid Day 1-28,0.9 ± 0.7 g
same,Change in Lean Mass,[1]; 25 mg/kg ip bid Day 1-28,3.1 ± 0.9 g
same,Change in Water,[1]; 25 mg/kg ip bid Day 1-28,2.8 ± 0.8 g
same,Food Intake,[1]; 25 mg/kg ip bid Day 1-28,14.0 ± 1.6 g/7 days
same,Plasma MCP-1,[1]; 25 mg/kg ip bid Day 1-28,69.2 ± 5.6 pg/mL
same,Body Weight Gain,[1]; 50 mg/kg ip bid Day 1-28,3.4 ± 1.1 g
same,Change in Fat Mass,[1]; 50 mg/kg ip bid Day 1-28,0.4 ± 0.6 g
same,Change in Lean Mass,[1]; 50 mg/kg ip bid Day 1-28,4.9 ± 0.9 g
same,Change in Water,[1]; 50 mg/kg ip bid Day 1-28,4.5 ± 0.8 g
same,Food Intake,[1]; 50 mg/kg ip bid Day 1-28,13.5 ± 1.8 g/7 days
same,Plasma MCP-1,[1]; 50 mg/kg ip bid Day 1-28,98.3 ± 7.6 pg/mL
same,Body Weight Gain,[1]; 100 mg/kg ip bid Day 1-28,2.3 ± 1.8 g
same,Change in Fat Mass,[1]; 100 mg/kg ip bid Day 1-28,0.2 ± 0.3 g
same,Change in Lean Mass,[1]; 100 mg/kg ip bid Day 1-28,3.4 ± 0.3 g
same,Change in Water,[1]; 100 mg/kg ip bid Day 1-28,2.9 ± 0.3 g
same,Food Intake,[1]; 100 mg/kg ip bid Day 1-28,14.5 ± 3.6 g/7 days
same,Plasma MCP-1,[1]; 100 mg/kg ip bid Day 1-28,503.5 ± 69.7 pg/mL
same,Body Weight Gain,[2],2.3 ± 1.5 g
same,Change in Fat Mass,[2],0.6 ± 0.3 g
same,Change in Lean Mass,[2],3.4 ± 0.8 g
same,Change in Water,[2],3.1 ± 0.7 g
same,Food Intake,[2],22.8 ± 1.7 g/7 days
same,Plasma MCP-1,[2],646.8 ± 112.5 pg/mL
same,Blood Glucose,"[3]; Day 7, 25 mg/kg ip bid, 0 min after insulin",333 ± 44 mg/dL
same,Blood Glucose,"[3]; Day 7, 25 mg/kg ip bid, 15 min after insulin",213 ± 40 mg/dL
same,Blood Glucose,"[3]; Day 7, 25 mg/kg ip bid, 30 min after insulin",157 ± 27 mg/dL
same,Blood Glucose,"[3]; Day 7, 25 mg/kg ip bid, 60 min after insulin",146 ± 21 mg/dL
same,Blood Glucose,"[3]; Day 7, 25 mg/kg ip bid, 90 min after insulin",146 ± 18 mg/dL
same,Blood Glucose,"[3]; Day 7, 25 mg/kg ip bid, 120 min after insulin",164 ± 23 mg/dL
same,Blood Glucose,"[3]; Day 7, 50 mg/kg ip bid, 0 min after insulin",325 ± 54 mg/dL
same,Blood Glucose,"[3]; Day 7, 50 mg/kg ip bid, 15 min after insulin",213 ± 51 mg/dL
same,Blood Glucose,"[3]; Day 7, 50 mg/kg ip bid, 30 min after insulin",136 ± 20 mg/dL
same,Blood Glucose,"[3]; Day 7, 50 mg/kg ip bid, 60 min after insulin",115 ± 13 mg/dL
same,Blood Glucose,"[3]; Day 7, 50 mg/kg ip bid, 90 min after insulin",115 ± 8 mg/dL
same,Blood Glucose,"[3]; Day 7, 50 mg/kg ip bid, 120 min after insulin",142 ± 8 mg/dL
same,Blood Glucose,"[3]; Day 7, 100 mg/kg ip bid, 0 min after insulin",230 ± 22 mg/dL
same,Blood Glucose,"[3]; Day 7, 100 mg/kg ip bid, 15 min after insulin",141 ± 16 mg/dL
same,Blood Glucose,"[3]; Day 7, 100 mg/kg ip bid, 30 min after insulin",105 ± 9 mg/dL
same,Blood Glucose,"[3]; Day 7, 100 mg/kg ip bid, 60 min after insulin",82 ± 8 mg/dL
same,Blood Glucose,"[3]; Day 7, 100 mg/kg ip bid, 90 min after insulin",83 ± 7 mg/dL
same,Blood Glucose,"[3]; Day 7, 100 mg/kg ip bid, 120 min after insulin",98 ± 8 mg/dL
same,Blood Glucose,"[3]; Day 21, 25 mg/kg ip bid, 0 min after insulin",465 ± 34 mg/dL
same,Blood Glucose,"[3]; Day 21, 25 mg/kg ip bid, 15 min after insulin",367 ± 51 mg/dL
same,Blood Glucose,"[3]; Day 21, 25 mg/kg ip bid, 30 min after insulin",247 ± 53 mg/dL
same,Blood Glucose,"[3]; Day 21, 25 mg/kg ip bid, 60 min after insulin",209 ± 56 mg/dL
same,Blood Glucose,"[3]; Day 21, 25 mg/kg ip bid, 90 min after insulin",198 ± 51 mg/dL
same,Blood Glucose,"[3]; Day 21, 25 mg/kg ip bid, 120 min after insulin",237 ± 43 mg/dL
same,Blood Glucose,"[3]; Day 21, 50 mg/kg ip bid, 0 min after insulin",434 ± 71 mg/dL
same,Blood Glucose,"[3]; Day 21, 50 mg/kg ip bid, 15 min after insulin",303 ± 56 mg/dL
same,Blood Glucose,"[3]; Day 21, 50 mg/kg ip bid, 30 min after insulin",186 ± 32 mg/dL
same,Blood Glucose,"[3]; Day 21, 50 mg/kg ip bid, 60 min after insulin",162 ± 37 mg/dL
same,Blood Glucose,"[3]; Day 21, 50 mg/kg ip bid, 90 min after insulin",168 ± 47 mg/dL
same,Blood Glucose,"[3]; Day 21, 50 mg/kg ip bid, 120 min after insulin",214 ± 49 mg/dL
same,Blood Glucose,"[3]; Day 21, 100 mg/kg ip bid, 0 min after insulin",332 ± 38 mg/dL
same,Blood Glucose,"[3]; Day 21, 100 mg/kg ip bid, 15 min after insulin",247 ± 28 mg/dL
same,Blood Glucose,"[3]; Day 21, 100 mg/kg ip bid, 30 min after insulin",152 ± 15 mg/dL
same,Blood Glucose,"[3]; Day 21, 100 mg/kg ip bid, 60 min after insulin",144 ± 21 mg/dL
same,Blood Glucose,"[3]; Day 21, 100 mg/kg ip bid, 90 min after insulin",158 ± 28 mg/dL
same,Blood Glucose,"[3]; Day 21, 100 mg/kg ip bid, 120 min after insulin",228 ± 43 mg/dL
same,blood glucose control,[3]; NON mice,improved
same,insulin sensitivity,[3]; NON mice,increased
same,Blood HbA1c,"[4]; Day 28, 25 mg/kg ip bid",6.6 ± 0.5%
same,Body Weight,"[4]; Day 28, 25 mg/kg ip bid",45.2 ± 1.4 g
same,Plasma FFA,"[4]; Day 28, 25 mg/kg ip bid",1.2 ± 0.4 mM
same,Plasma Glucose,"[4]; Day 28, 25 mg/kg ip bid",413 ± 52 mg/dL
same,Plasma Insulin,"[4]; Day 28, 25 mg/kg ip bid",5.8 ± 0.7 ng/mL
same,Plasma MCP-1,"[4]; Day 28, 25 mg/kg ip bid",56.6 ± 3.0 pg/mL
same,Blood HbA1c,"[4]; Day 28, 50 mg/kg ip bid",6.7 ± 0.7%
same,Body Weight,"[4]; Day 28, 50 mg/kg ip bid",42.6 ± 0.8 g
same,Plasma FFA,"[4]; Day 28, 50 mg/kg ip bid",1.0 ± 0.2 mM
same,Plasma Glucose,"[4]; Day 28, 50 mg/kg ip bid",358 ± 58 mg/dL
same,Plasma Insulin,"[4]; Day 28, 50 mg/kg ip bid",5.4 ± 0.9 ng/mL
same,Plasma MCP-1,"[4]; Day 28, 50 mg/kg ip bid",177.4 ± 63.4 pg/mL
same,Blood HbA1c,"[4]; Day 28, 100 mg/kg ip bid",5.0 ± 0.2 %
same,Body Weight,"[4]; Day 28, 100 mg/kg ip bid",43.6 ± 0.9 g
same,Plasma FFA,"[4]; Day 28, 100 mg/kg ip bid",0.6 ± 0.1 mM
same,Plasma Glucose,"[4]; Day 28, 100 mg/kg ip bid",190 ± 15 mg/dL
same,Plasma Insulin,"[4]; Day 28, 100 mg/kg ip bid",7.9 ± 1.1 ng/mL
same,Plasma MCP-1,"[4]; Day 28, 100 mg/kg ip bid",555.6 ± 104.5 pg/mL
same,HbA1c levels,[4]; NON mice,significantly reduced
same,body weight between treated and non-treated groups,[4]; NON mice,without a significant difference
